Source: patent US8609644B2, “Amino derivatives of androstanes and androstenes as medicaments for cardiovascular disorders” (priority 2006, dated 2013)
Counter-ions that a name gives are not always drawn. Like-named read-outs stand apart in the source and are kept apart here.

Experiments:
[1] = biological target: Na+, K+-ATPase (Canis lupus familiaris, UniProt P50997); assay: biochemical; set-up: species or system dog
[2] = tested on: anesthetized guinea-pig; assay: Inotropic effect and lethal dose, slow intravenous infusion (over 90 minutes) in anesthetized guinea-pig; details: for ED80 / ED (max) / Emax: Cavia porcellus, iv, 1.5 h; for ED80: read-out: ED80 (inotropic potency, dose increasing +dP/dTmax by 80%); for ED (max): read-out: EDmax (dose inducing maximum positive inotropic effect); for Emax: read-out: Emax % increase in +dP/dTmax; for % decrease from Emax after 20 min from the end of the infusion: duration of the inotropic effect; for Maximum dose infused: maximum dose infused in the survived animals; for Dead/treated: slow i.v. infusion over 90 minutes
[3] = dog kidney enzyme, read-out: Na+, K+-ATPase Inhibition IC50
[4] = read-out: Na+, K+-ATPase Inhibition IC50

C[C@]12CC[C@H]3[C@@H](CC[C@@]4(O)CC(=NOCCN)CC[C@]34C)[C@@H]1CCC2=O (mixture of isomers) [I-ad, (E,Z) 3-(2-Aminoethoxyimino)-5α-hydroxyandrostan-17-one fumarate]
IC50 ([1]; Na+, K+-ATPase Inhibition IC50): 540 nM
ED80 [2]: 5.14 µmol/kg
ED (max) [2]: 22.5 µmol/kg
Emax [2]: 202%
% decrease from Emax after 20 min from the end of the infusion [2]: 100%
Maximum dose infused [2]: 50.1 µmol/kg
Dead/treated [2]: 0/3

CC12CCC3C(CC(CCO)C4CC(=NOCCN)CCC43C)C1CCC2=O (mixture of isomers) [I-am, (E,Z) 3-(2-Aminoethoxyimino)-6α-(2-hydroxyethyl)androstan-17-one hydrochloride]
IC50 [1, 3]: 320 nM
ED80 [2]: 2.5 µmol/kg
ED (max) [2]: 17.2 µmol/kg
Emax [2]: 238%
Lethal dose/ED80 (safety ratio) ([2]; calculated in the died animals): 22.7
% decrease from Emax after 20 min from the end of the infusion [2]: 17%
Maximum dose infused [2]: 50.5 µmol/kg
Dead/treated [2]: 2/3

CNCCCON=C1CCC2(C)C(C1)C(CO)C(O)C1C3CCC(=O)C3(C)CCC12 (mixture of isomers) [I-ek, (E,Z) 3-(3-N-Methylaminopropoxyimino)-6α-hydroxymethyl-7α-hydroxyandrostane-17-one hydrochloride]
IC50 [1, 3]: 320 nM

CC12CCC3C(C(=C(F)F)CC4CC(=NOCCN)CCC43C)C1CCC2=O (mixture of isomers) [I-ep, (E,Z) 3-(2-Aminoethoxyimino)-7-difluoromethyleneandrostane-17-one hydrochloride]
IC50 ([1]; Na+, K+-ATPase Inhibition IC50): 87 nM

CC12CCC3C(CC(O[N+](=O)[O-])C4CC(=NOCCN)CCC43C)C1CCC2=O (single isomer, unassigned) [I-aa, (E,Z) 3-(2-Aminoethoxyimino)-17-oxoandrostane-6α-yl nitrate fumarate]
IC50 [1, 3]: 330 nM

CC12CCC3C(CC(O[N+](=O)[O-])C4CC(=NOCCN)CCC43C)C1CCC2=O (single isomer, unassigned) [I-ab, (E,Z) 3-(2-Aminoethoxyimino)-17-oxoandrostane-6β-yl nitrate fumarate]
IC50 [1, 3]: 2900 nM

CC12CCC3C(CC(CO)C4CC(=NOCCN)CCC43C)C1CCC2=O (single isomer, unassigned) [I-aj, (E,Z) 3-(2-Aminoethoxyimino)-6β-hydroxymethylandrostan-17-one hydrochloride]
IC50 [1, 3]: 1600 nM

CC1CC2C3CCC(=O)C3(C)CCC2C2(C)CCC(=NOCCN)CC12 (single isomer, unassigned) [I-az, (E,Z) 3-(2-Aminoethoxyimino)-6β-methylandrostan-17-one hydrochloride]
IC50 ([1]; Na+, K+-ATPase Inhibition IC50): 6000 nM

C=C1C[C@@H]2[C@H](CC[C@]3(C)C(=O)CC[C@@H]23)[C@@]2(C)CCC(=NOCCN)CC12 (stereo partly drawn) [I-ah, (E,Z) 3-(2-Aminoethoxyimino)-6-methyleneandrostan-17-one hydrochloride]
IC50 [1, 4]: 42 nM

C=CC1CC2C3CCC(=O)C3(C)CCC2C2(C)CCC(=NOCCN)CC12 (stereo not drawn) [I-al, (E,Z) 3-(2-Aminoethoxyimino)-6α-vinylandrostan-17-one hydrochloride]
IC50 ([1]; Na+, K+-ATPase Inhibition IC50): 530 nM

C[C@]12CCC(=NOCCN)CC1[C@@H](C=NO)C[C@@H]1[C@@H]2CC[C@]2(C)C(=O)CC[C@@H]12 (stereo partly drawn) [I-an, 3-(E,Z)-(2-Aminoethoxyimino)-17-oxoandrostane-6α-carbaldehyde (E,Z)-oxime fumarate]
IC50 [1, 4]: 390 nM

CC(=O)OCC1CC2C3CCC(=O)C3(C)CCC2C2(C)CCC(=NOCCN)CC12 (stereo not drawn) [I-ap, (E,Z) 3-(2-Aminoethoxyimino)-6α-acetoxymethylandrostan-17-one fumarate]
IC50 [1, 3]: 3000 nM

COC[C@H]1C[C@@H]2[C@H](CC[C@]3(C)C(=O)CC[C@@H]23)[C@@]2(C)CC/C(=N\OCCN)CC12 (stereo partly drawn) [I-aq, (E) 3-(2-Aminoethoxyimino)-6α-methoxymethylandrostan-17-one hydrochloride]
IC50 [1, 3]: 500 nM

C[C@]12CC/C(=N/OCCN)CC1[C@@H](C(N)=O)C[C@@H]1[C@@H]2CC[C@]2(C)C(=O)CC[C@@H]12 (stereo partly drawn) [I-as, (Z) 3-(2-Aminoethoxyimino)-6α-carbamoylandrostan-17-one hydrochloride]
IC50 [1, 4]: 630 nM

C=CCON=C1CC2C3CCC(=O)C3(C)CCC2C2(C)CCC(=NOCCN)CC12 (stereo not drawn) [I-ay, (E,Z)-3-(2-Aminoethoxyimino)-6-(E)-allyloxyiminoandrostan-17-one fumarate]
IC50 [1, 3]: 43000 nM

C[C@]12CCC(=NOCCN)CC1C1(CO1)C[C@@H]1[C@@H]2CC[C@]2(C)C(=O)CC[C@@H]12 (stereo partly drawn) [I-bc, (E,Z)-3-(2-Aminoethoxyimino)androstane-6(R)-(spiro-2′-oxirane)-17-one hydrochloride]
IC50 [1, 4]: 910 nM

CC12CCC3C(CC(=CC#N)C4CC(=NOCCN)CCC43C)C1CCC2=O (stereo not drawn) [I-bi, (E) 3-(2-Aminoethoxyimino)-17-oxoandrostane-6-(E)-ylideneacetonitrile hydrochloride]
IC50 ([1]; Na+, K+-ATPase Inhibition IC50): 1700 nM

C[C@]12CCC(=NOCCN)CC1C1(CC1)C[C@@H]1[C@@H]2CC[C@]2(C)C(=O)CC[C@@H]12 (stereo partly drawn) [I-bl, E,Z) 3-(2-Aminoethoxyimino)-6-(spirocyclopropane)androstane-17-one hydrochloride]
IC50 [1, 4]: 850 nM

CC(=O)NC[C@H]1C[C@@H]2[C@H](CC[C@]3(C)C(=O)CC[C@@H]23)[C@@]2(C)CCC(=NOCCN)CC12 (stereo partly drawn) [I-bm, (E,Z) 3-(2-Aminoethoxyimino)-6α-acetamidomethylandrostan-17-one hydrochloride]
IC50 [1, 4]: 3600 nM

C[C@]12CCC(=NOCCN)CC1C[C@@H](O)[C@@H]1[C@@H]2CC[C@]2(C)C(=O)CC[C@@H]12 (stereo partly drawn) [I-bv, (E,Z) 3-(2-Aminoethoxyimino)-7α-hydroxyandrostane-17-one fumarate]
IC50 [1, 4]: 520 nM

C[C@]12CCC(=NOCCN)CC1C[C@@H](NC=O)[C@@H]1[C@@H]2CC[C@]2(C)C(=O)CC[C@@H]12 (stereo partly drawn) [I-bw, (E,Z)-3-(2-Aminoethoxyimino)-7α-formamidoandrostane-3,17-dione hydrochloride]
IC50 [1, 4]: 6000 nM

C[C@]12CCC(=NOCCN)CC1C[C@H](CO)[C@@H]1[C@@H]2CC[C@]2(C)C(=O)CC[C@@H]12 (stereo partly drawn) [I-ca, (E,Z) 3-(2-Aminoethoxyimino)-7β-hydroxymethylandrostane-17-one hydrochloride]
IC50 [1, 4]: 910 nM

CNCCON=C1CC[C@@]2(C)C(C1)C(=NOC)C[C@@H]1[C@@H]2CC[C@]2(C)C(=O)CC[C@@H]12 (stereo partly drawn) [I-ce, (E,Z) 3-(2-N-Methylaminoethoxyimino)-6-(E)-methoxyiminoandrostan-17-one hydrochloride]
IC50 [1, 4]: 650 nM

C=C1C[C@@H]2[C@H](CC[C@]3(C)C(=O)CC[C@@H]23)[C@@]2(C)CC/C(=N\OCCCNC)C[C@H]12 [I-cj, (E) 3-(3-N-Methylaminopropoxyimino)-6-methyleneandrostan-17-one fumarate]
IC50 ([1]; Na+, K+-ATPase Inhibition IC50): 380 nM

C#CC1CC2C3CCC(=O)C3(C)CCC2C2(C)CCC(=NOCCCNC)CC12 (stereo not drawn) [I-cq, (E,Z) 3-(3-N-Methylaminopropoxyimino)-6α-ethynylandrostan-17-one hydrochloride]
IC50 ([1]; Na+, K+-ATPase Inhibition IC50): 1200 nM

CNCCCON=C1CC[C@]2(C)[C@H]3CC[C@]4(C)C(=O)CC[C@H]4[C@@H]3CC(=NOC)[C@@]2(O)C1 [I-cs, (E,Z) 3-(3-N-Methylaminopropoxyimino)-5α-hydroxy-6-(E)-methoxyimino-androstane-17-one fumarate]
IC50 [1, 4]: 1100 nM

C[C@]12CC[C@H](/C=C\CCN)CC1/C(=N/O)C[C@@H]1[C@@H]2CC[C@]2(C)C(=O)CC[C@@H]12 (stereo partly drawn) [I-de, 3β-(4-Aminobut-1-(Z)-enyl)-6-(E)-hydroxyiminoandrostane-17-one fumarate]
IC50 [1, 4]: 1200 nM

C[C@]12CC[C@@H](/C=C\CCCCN)CC1/C(=N/O)C[C@@H]1[C@@H]2CC[C@]2(C)C(=O)CC[C@@H]12 (stereo partly drawn) [I-dj, 3α-(6-Aminohex-1-(Z)-enyl)-6-(E)-hydroxyiminoandrostan-17-one fumarate]
IC50 [1, 4]: 1300 nM

CNCCCOC1CCC2(C)C(C1)C(CO)CC1C3CCC(=O)C3(C)CCC12 (stereo not drawn) [I-du, 3β-(3-N-Methylaminopropoxy)-6α-hydroxymethylandrostane-17-one fumarate]
IC50 [1, 3]: 1100 nM

C=C1C[C@@H]2[C@H](CC[C@]3(C)C(=O)CC[C@@H]23)[C@@]2(C)CC[C@@H](SCCCN)CC12 (stereo partly drawn) [I-dz, 3α-(3-Aminopropylthio)-6-methyleneandrostane-17-one fumarate]
IC50 [1, 3]: 1500 nM

C=C1C[C@@H]2[C@H](CC[C@]3(C)C(=O)CC[C@@H]23)[C@@]2(C)CC[C@@H](SCCCNC)C[C@H]12 [I-ea, 3α-(3-N-Methylaminopropylthio)-6-methyleneandrostane-17-one fumarate]
IC50 [1, 3]: 2800 nM

C=C1C[C@@H]2[C@H](CC[C@]3(C)C(=O)CC[C@@H]23)[C@@]2(C)CC[C@@H]([S@@+]([O-])CCCN)CC12 (stereo partly drawn) [I-eb, 3α-[(S)-3-Aminopropylsulfinyl]-6-methyleneandrostane-17-one fumarate]
IC50 [1, 4]: 7200 nM

C=C1C[C@@H]2[C@H](CC[C@]3(C)C(=O)CC[C@@H]23)[C@@]2(C)CC[C@@H]([S@+]([O-])CCCN)CC12 (stereo partly drawn) [I-ec, 3α-[(R)-3-Aminopropylsulfinyl]-6-methyleneandrostane-17-one fumarate]
IC50 [1, 4]: 80000 nM

CNCCCON=C1CC[C@@]2(C)C(C1)[C@@H](CO)C(=O)[C@@H]1[C@@H]2CC[C@]2(C)C(=O)CC[C@@H]12 (stereo partly drawn) [I-ei, (E,Z) 3-(3-N-Methylaminopropoxyimino)-6α-hydroxymethylandrostane-7,17-dione fumarate]
IC50 [1, 4]: 44 nM

CC(C)(CN)ON=C1CC[C@@]2(C)C(C1)/C(=N/O)C[C@@H]1[C@@H]2CC[C@]2(C)C(=O)CC[C@@H]12 (stereo partly drawn) [I-eo, (E,Z) 3-(3-Amino-2-methyl-2-propoxyimino)-6-(E)-hydroxyiminoandrostane-17-one hydrochloride]
IC50 [1, 4]: 20 nM
